We go through 17 compounds from patent US20230257372A1 (CHONG KUN DANG PHARMACEUTICAL CORP., priority 2020, published 2023).

Assay [1] addresses T1, human recombinant HDAC1 (Homo sapiens, UniProt Q13547).
T1 construct: purchased Enzo Life Science, Inc. BML-SE456
In words: HDAC1 enzyme activity inhibition (HDAC Fluorimetric Drug Discovery Kit). The format is biochemical. As to conditions: human recombinant HDAC1, Fluor de Lys substrate, 30° C. 60 minutes; read-out: HDAC1. Put shortly:
(§1)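 Five-fold compound dilutions incubated with […] recombinant enzyme and 10 μM fluorogenic Fluor de Lys substrate, 60 min at 30° C. Fluor de Lys Developer II then added for 30 min to generate the fluorescent read-out.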

For assay [2], the target named is T2, human recombinant HDAC6 (Homo sapiens, UniProt Q9UBN7).
T2 construct: purchased Calbiochem Inc. 382180
T2 sequence (Q9UBN7 1-1215): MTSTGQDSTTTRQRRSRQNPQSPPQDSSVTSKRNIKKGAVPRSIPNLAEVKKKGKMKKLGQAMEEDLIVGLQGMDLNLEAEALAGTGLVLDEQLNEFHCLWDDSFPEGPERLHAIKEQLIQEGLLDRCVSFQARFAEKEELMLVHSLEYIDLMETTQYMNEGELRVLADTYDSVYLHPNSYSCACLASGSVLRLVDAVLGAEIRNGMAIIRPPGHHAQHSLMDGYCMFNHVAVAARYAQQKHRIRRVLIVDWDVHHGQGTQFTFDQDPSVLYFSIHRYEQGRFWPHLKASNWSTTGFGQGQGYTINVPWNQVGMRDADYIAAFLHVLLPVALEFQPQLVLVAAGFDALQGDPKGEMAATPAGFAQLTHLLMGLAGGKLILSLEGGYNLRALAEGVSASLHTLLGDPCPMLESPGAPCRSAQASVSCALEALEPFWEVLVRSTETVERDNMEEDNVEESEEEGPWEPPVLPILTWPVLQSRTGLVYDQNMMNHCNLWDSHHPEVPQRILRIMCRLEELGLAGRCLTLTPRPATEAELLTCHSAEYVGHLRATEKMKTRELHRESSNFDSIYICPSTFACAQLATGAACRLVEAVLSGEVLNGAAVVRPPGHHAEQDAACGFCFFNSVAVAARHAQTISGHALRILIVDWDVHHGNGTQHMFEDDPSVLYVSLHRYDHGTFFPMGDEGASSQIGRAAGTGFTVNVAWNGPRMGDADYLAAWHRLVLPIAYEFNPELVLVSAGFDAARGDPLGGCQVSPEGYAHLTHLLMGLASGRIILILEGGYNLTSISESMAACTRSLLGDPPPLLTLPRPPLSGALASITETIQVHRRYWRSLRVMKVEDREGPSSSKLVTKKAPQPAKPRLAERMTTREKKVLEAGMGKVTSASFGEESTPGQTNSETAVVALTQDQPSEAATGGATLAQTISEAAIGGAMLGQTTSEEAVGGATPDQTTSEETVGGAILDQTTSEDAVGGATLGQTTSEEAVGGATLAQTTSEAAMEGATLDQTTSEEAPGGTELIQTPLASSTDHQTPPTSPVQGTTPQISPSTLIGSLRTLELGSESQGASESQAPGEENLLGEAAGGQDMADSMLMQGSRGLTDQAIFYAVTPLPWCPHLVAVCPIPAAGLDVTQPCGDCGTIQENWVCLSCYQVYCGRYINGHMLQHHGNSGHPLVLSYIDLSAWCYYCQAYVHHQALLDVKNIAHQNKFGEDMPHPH
The assay can be described thus: HDAC6 enzyme activity inhibition (HDAC Fluorimetric Drug Discovery Kit). The format is biochemical. As to conditions: for HDAC6 selectivity (fold): HDAC6 over HDAC1; for pIC50: human recombinant HDAC6, same protocol as HDAC1. The method in brief: as §1

Molecules are shown by their SMILES. pIC50: −log10 of the molar value.

T1 sequence (Q13547 whole entry): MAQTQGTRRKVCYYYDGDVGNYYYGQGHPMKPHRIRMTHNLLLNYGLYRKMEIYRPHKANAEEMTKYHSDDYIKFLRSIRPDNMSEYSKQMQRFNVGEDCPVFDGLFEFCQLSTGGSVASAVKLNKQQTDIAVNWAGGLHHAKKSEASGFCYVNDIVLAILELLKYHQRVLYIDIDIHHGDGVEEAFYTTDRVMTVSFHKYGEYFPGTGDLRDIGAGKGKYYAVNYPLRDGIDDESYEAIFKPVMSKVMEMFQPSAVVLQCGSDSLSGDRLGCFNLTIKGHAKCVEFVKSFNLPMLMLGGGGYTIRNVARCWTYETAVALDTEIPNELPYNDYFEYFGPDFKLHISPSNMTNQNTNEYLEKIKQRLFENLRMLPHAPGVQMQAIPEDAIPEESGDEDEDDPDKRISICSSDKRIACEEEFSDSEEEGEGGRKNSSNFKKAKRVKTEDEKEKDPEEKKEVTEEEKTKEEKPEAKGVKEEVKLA

For the compound `CN1CCN(c2cccc(-c3cn(Cc4ccc(-c5nnc(C(F)F)o5)cn4)nn3)c2F)CC1` [Compound 4569, 2-(difluoromethyl)-5-(6-((4-(2-fluoro-3-(4-methylpiperazin-1-yl)phenyl)-1H-1,2,3-triazol-1-yl)methyl)pyridin-3-yl)-1,3,4-oxadiazole], the pIC50 in assay [1] is < 4.30. Further, in assay [2], the “HDAC6 selectivity (fold)” value amounted to 3649 fold and the pIC50 was 7.86.
Consider `CCN1CCN(c2cccc(-c3cn(Cc4ccc(-c5nnc(C(F)F)o5)cn4)nn3)c2F)CC1` [Compound 4570, 2-(difluoromethyl)-5-(6-((4-(3-(4-ethylpiperazin-1-yl)-2-fluorophenyl)-1H-1,2,3-triazol-1-yl)methyl)pyridin-3-yl)-1,3,4-oxadiazole], for which the pIC50 in assay [1] was < 4.30. Also, in assay [2], the “HDAC6 selectivity (fold)” value is recorded as 2475 fold and the pIC50 was 7.69.
For `CC(C)N1CCN(c2cccc(-c3cn(Cc4ccc(-c5nnc(C(F)F)o5)cn4)nn3)c2F)CC1` [Compound 4571, 2-(difluoromethyl)-5-(6-((4-(2-fluoro-3-(4-isopropylpiperazin-1-yl)phenyl)-1H-1,2,3-triazol-1-yl)methyl)pyridin-3-yl)-1,3,4-oxadiazole] the same measures were < 4.30, 2732 fold and 7.74.
As to `Fc1c(-c2cn(Cc3ccc(-c4nnc(C(F)F)o4)cn3)nn2)cccc1N1CCN(C2CCC2)CC1` [Compound 4572, 2-(6-((4-(3-(4-cyclobutylpiperazin-1-yl)-2-fluorophenyl)-1H-1,2,3-triazol-1-yl)methyl)pyridin-3-yl)-5-(difluoromethyl)-1,3,4-oxadiazole], in assay [1], the pIC50 was < 4.30. Besides, in assay [2], the “HDAC6 selectivity (fold)” value worked out at 2564 fold and the pIC50 was 7.71.
As for `Fc1c(-c2cn(Cc3ccc(-c4nnc(C(F)F)o4)cn3)nn2)cccc1N1CCN(C2COC2)CC1` [Compound 4573, 2-(difluoromethyl)-5-(6-((4-(2-fluoro-3-(4-(oxetan-3-yl)piperazin-1-yl)phenyl)-1H-1,2,3-triazol-1-yl)methyl)pyridin-3-yl)-1,3,4-oxadiazole], the pIC50 is < 4.30 in assay [1] and 7.67 in assay [2]. In addition, in assay [2], the “HDAC6 selectivity (fold)” value worked out at 2314 fold.
For `CN1CCN(c2cccc(-c3cn(Cc4ccc(-c5nnc(C(F)F)o5)cc4F)nn3)c2F)CC1` [Compound 4576, 2-(difluoromethyl)-5-(3-fluoro-4-((4-(2-fluoro-3-(4-methylpiperazin-1-yl)phenyl)-1H-1,2,3-triazol-1-yl)methyl)phenyl)-1,3,4-oxadiazol] the same measures were < 4.30, 7.76 and 2857 fold.
Turning to `CCN1CCN(c2cccc(-c3cn(Cc4ccc(-c5nnc(C(F)F)o5)cc4F)nn3)c2F)CC1` [Compound 4577, 2-(difluoromethyl)-5-(4-((4-(3-(4-ethylpiperazin-1-yl)-2-fluorophenyl)-1H-1,2,3-triazol-1-yl)methyl)-3-fluorophenyl)-1,3,4-oxadiazole], the pIC50 in assay [1] is < 4.30. In assay [2], the “HDAC6 selectivity (fold)” value stood at 2688 fold and the pIC50 is 7.73.
`CC(C)N1CCN(c2cccc(-c3cn(Cc4ccc(-c5nnc(C(F)F)o5)cc4F)nn3)c2F)CC1` [Compound 4578]: the pIC50 in assay [1] was < 4.30. In assay [2], the “HDAC6 selectivity (fold)” value amounted to 1923 fold and the pIC50 was 7.59.
As for `Fc1cc(-c2nnc(C(F)F)o2)ccc1Cn1cc(-c2cccc(N3CCN(C4CCC4)CC3)c2F)nn1` [Compound 4579, 2-(4-((4-(3-(4-cyclobutylpiperazin-1-yl)-2-fluorophenyl)-1H-1,2,3-triazol-1-yl)methyl)-3-fluorophenyl)-5-(difluoromethyl)-1,3,4-oxadiazole], the pIC50 in assay [1] is < 4.30. Further, in assay [2], the “HDAC6 selectivity (fold)” value was 1256 fold and the pIC50 is 7.40.
As to `Fc1cc(-c2nnc(C(F)F)o2)ccc1Cn1cc(-c2cccc(N3CCN(C4COC4)CC3)c2F)nn1` [Compound 4580], the pIC50 was < 4.30 in assay [1] and 7.58 in assay [2]. Moreover, the “HDAC6 selectivity (fold)” value in assay [2] is on record as 1908 fold.
Regarding `CN1CCN(c2cc(-c3cn(Cc4ccc(-c5nnc(C(F)F)o5)cn4)nn3)ccn2)CC1` [Compound 4582, 2-(difluoromethyl)-5-(6-((4-(2-(4-methylpiperazin-1-yl)pyridin-4-yl)-1H-1,2,3-triazol-1-yl)methyl)pyridin-3-yl)-1,3,4-oxadiazole], in assay [1], the pIC50 is < 4.30. In addition, in assay [2], the “HDAC6 selectivity (fold)” value amounted to 2283 fold and the pIC50 was 7.66.
As for `Fc1cc(-c2nnc(C(F)F)o2)ccc1Cn1cc(-c2ccccc2CN2CCC2)nn1` [Compound 4583, 2-(4-((4-(2-(azetidin-1-ylmethyl)phenyl)-1H-1,2,3-triazol-1-yl)methyl)-3-fluorophenyl)-5-(difluoromethyl)-1,3,4-oxadiazole], in assay [1], the pIC50 was < 4.30. In assay [2], the “HDAC6 selectivity (fold)” value is recorded as 138 fold and the pIC50 is 6.44.
For `Fc1cc(-c2nnc(C(F)F)o2)ccc1Cn1cc(-c2ccccc2CN2CCCC2)nn1` [Compound 4585, 2-(difluoromethyl)-5-(3-fluoro-4-((4-(2-(pyrrolidin-1-ylmethyl)phenyl)-1H-1,2,3-triazol-1-yl)methyl)phenyl)-1,3,4-oxadiazole] the same measures were < 4.30, 237 fold and 6.68.
Consider `Fc1cc(-c2nnc(C(F)F)o2)ccc1Cn1cc(-c2ccccc2CN2CC3(COC3)C2)nn1` [Compound 4586, 6-(2-(1-(4-(5-(difluoromethyl)-1,3,4-oxadiazol-2-yl)-2-fluorobenzyl)-1H-1,2,3-triazol-4-yl)benzyl)-2-oxa-6-azaspiro[3.3]heptane], for which the pIC50 in assay [1] is < 4.30. In assay [2], the “HDAC6 selectivity (fold)” value was 225 fold and the pIC50 is 6.65.
For `CN1CCN(Cc2ccccc2-c2cn(Cc3ccc(-c4nnc(C(F)F)o4)cc3F)nn2)CC1` [Compound 4587, 2-(difluoromethyl)-5-(3-fluoro-4-((4-(2-((4-methylpiperazin-1-yl)methyl)phenyl)-1H-1,2,3-triazol-1-yl)methyl)phenyl)-1,3,4-oxadiazole] the same measures were < 4.30, 274 fold and 6.74.
`CCN1CCN(Cc2ccccc2-c2cn(Cc3ccc(-c4nnc(C(F)F)o4)cc3F)nn2)CC1` [Compound 4588, 2-(difluoromethyl)-5-(4-((4-(2-((4-ethylpiperazin-1-yl)methyl)phenyl)-1H-1,2,3-triazol-1-yl)methyl)-3-fluorophenyl)-1,3,4-oxadiazole]: the pIC50 in assay [1] was < 4.30; in assay [2], 6.66. The “HDAC6 selectivity (fold)” value in assay [2] is reported as 229 fold.
As to `Fc1cc(-c2nnc(C(F)F)o2)ccc1Cn1cc(-c2ccccc2CNC2CCC2)nn1` [Compound 4589, N-(2-(1-(4-(5-(difluoromethyl)-1,3,4-oxadiazol-2-yl)-2-fluorobenzyl)-1H-1,2,3-triazol-4-yl)benzyl)cyclobutanamine], the pIC50 in assay [1] was < 4.30; in assay [2] it was 6.54. Also, the “HDAC6 selectivity (fold)” value in assay [2] was 172 fold.
